What all share (experiment): cell-based
Assay [1] concerns the target hNav1.7 (Homo sapiens, UniProt Q15858). The format is cell-based. As to conditions: IonWorks Quattro, read-out: IWQ Use Nav1.7.
Assay [2] concerns the target hNav1.5 (Homo sapiens, UniProt Q14524). As to conditions: IonWorks Quattro, read-out: IWQ Use Nav1.5.
The target of assay [3] is hNav1.3 (Homo sapiens, UniProt Q9NY46). As to conditions: IonWorks Quattro, read-out: IWQ Use Nav1.3.

pIC50: −log10 of the molar value. Where two headings read alike, the source gives them in different places. Positions of bridges follow the written chain, without caps; N, C: chain ends. Non-standard residues stand in square brackets, D forms with d. Residues, ends and D or L forms follow the SMILES beside them. Phe(4-COOH) = N[C@@H](Cc1ccc(C(=O)O)cc1)C(=O)O; NMeW = CN[C@@H](Cc1c[nH]c2ccccc12)C(=O)O

Chain of hNav1.3 (Q9NY46 whole entry, looked up): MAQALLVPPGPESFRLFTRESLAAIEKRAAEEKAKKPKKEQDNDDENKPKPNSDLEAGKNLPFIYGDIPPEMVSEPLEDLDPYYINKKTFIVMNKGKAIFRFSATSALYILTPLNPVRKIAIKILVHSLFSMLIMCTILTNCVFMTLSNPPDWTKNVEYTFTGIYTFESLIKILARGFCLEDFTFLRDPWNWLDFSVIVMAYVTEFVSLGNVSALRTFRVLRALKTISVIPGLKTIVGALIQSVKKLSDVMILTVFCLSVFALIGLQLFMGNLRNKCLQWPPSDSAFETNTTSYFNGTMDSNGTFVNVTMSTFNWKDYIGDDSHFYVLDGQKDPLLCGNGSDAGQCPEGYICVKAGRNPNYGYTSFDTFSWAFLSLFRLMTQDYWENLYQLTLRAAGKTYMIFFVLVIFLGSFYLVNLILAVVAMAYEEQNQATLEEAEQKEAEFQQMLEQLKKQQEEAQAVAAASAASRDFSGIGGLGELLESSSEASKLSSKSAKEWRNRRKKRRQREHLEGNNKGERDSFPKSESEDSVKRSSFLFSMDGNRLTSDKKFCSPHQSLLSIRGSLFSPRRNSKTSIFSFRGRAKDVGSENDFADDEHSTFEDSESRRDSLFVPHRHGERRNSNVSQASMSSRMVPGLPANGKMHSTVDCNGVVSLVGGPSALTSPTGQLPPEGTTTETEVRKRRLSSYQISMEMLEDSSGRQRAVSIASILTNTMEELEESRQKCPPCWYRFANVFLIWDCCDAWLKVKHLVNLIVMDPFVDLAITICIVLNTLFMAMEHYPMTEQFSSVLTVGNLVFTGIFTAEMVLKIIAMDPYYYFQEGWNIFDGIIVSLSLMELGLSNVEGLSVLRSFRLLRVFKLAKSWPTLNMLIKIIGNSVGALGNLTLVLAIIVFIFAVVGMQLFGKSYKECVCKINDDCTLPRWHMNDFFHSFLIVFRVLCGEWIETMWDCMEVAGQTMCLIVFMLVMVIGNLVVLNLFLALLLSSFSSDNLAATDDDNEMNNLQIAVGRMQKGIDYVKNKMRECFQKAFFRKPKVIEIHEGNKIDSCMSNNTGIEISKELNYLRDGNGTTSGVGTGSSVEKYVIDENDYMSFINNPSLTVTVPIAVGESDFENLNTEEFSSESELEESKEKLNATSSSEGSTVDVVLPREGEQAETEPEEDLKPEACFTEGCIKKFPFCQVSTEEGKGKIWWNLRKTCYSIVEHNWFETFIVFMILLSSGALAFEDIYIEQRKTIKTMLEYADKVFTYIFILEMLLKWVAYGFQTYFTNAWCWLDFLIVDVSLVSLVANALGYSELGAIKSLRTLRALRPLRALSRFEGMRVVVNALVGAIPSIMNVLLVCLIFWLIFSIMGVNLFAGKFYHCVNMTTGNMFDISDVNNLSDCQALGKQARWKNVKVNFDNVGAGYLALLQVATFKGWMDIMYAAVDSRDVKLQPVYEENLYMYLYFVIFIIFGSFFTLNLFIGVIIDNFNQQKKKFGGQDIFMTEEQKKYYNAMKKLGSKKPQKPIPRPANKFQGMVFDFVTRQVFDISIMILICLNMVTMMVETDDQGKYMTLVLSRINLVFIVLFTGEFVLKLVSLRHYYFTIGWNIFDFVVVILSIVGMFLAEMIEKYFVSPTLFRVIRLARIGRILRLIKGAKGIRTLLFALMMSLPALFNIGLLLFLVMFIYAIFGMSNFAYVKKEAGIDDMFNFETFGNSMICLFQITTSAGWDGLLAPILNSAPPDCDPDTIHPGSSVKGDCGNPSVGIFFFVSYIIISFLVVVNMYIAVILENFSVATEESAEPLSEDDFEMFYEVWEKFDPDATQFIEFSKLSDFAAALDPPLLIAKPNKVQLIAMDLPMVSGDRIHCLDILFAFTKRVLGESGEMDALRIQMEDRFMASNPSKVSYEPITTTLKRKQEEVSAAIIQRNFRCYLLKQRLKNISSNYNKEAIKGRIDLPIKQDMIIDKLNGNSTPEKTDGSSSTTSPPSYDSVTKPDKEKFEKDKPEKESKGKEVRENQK
Chain of hNav1.7 (Q15858 whole entry, looked up): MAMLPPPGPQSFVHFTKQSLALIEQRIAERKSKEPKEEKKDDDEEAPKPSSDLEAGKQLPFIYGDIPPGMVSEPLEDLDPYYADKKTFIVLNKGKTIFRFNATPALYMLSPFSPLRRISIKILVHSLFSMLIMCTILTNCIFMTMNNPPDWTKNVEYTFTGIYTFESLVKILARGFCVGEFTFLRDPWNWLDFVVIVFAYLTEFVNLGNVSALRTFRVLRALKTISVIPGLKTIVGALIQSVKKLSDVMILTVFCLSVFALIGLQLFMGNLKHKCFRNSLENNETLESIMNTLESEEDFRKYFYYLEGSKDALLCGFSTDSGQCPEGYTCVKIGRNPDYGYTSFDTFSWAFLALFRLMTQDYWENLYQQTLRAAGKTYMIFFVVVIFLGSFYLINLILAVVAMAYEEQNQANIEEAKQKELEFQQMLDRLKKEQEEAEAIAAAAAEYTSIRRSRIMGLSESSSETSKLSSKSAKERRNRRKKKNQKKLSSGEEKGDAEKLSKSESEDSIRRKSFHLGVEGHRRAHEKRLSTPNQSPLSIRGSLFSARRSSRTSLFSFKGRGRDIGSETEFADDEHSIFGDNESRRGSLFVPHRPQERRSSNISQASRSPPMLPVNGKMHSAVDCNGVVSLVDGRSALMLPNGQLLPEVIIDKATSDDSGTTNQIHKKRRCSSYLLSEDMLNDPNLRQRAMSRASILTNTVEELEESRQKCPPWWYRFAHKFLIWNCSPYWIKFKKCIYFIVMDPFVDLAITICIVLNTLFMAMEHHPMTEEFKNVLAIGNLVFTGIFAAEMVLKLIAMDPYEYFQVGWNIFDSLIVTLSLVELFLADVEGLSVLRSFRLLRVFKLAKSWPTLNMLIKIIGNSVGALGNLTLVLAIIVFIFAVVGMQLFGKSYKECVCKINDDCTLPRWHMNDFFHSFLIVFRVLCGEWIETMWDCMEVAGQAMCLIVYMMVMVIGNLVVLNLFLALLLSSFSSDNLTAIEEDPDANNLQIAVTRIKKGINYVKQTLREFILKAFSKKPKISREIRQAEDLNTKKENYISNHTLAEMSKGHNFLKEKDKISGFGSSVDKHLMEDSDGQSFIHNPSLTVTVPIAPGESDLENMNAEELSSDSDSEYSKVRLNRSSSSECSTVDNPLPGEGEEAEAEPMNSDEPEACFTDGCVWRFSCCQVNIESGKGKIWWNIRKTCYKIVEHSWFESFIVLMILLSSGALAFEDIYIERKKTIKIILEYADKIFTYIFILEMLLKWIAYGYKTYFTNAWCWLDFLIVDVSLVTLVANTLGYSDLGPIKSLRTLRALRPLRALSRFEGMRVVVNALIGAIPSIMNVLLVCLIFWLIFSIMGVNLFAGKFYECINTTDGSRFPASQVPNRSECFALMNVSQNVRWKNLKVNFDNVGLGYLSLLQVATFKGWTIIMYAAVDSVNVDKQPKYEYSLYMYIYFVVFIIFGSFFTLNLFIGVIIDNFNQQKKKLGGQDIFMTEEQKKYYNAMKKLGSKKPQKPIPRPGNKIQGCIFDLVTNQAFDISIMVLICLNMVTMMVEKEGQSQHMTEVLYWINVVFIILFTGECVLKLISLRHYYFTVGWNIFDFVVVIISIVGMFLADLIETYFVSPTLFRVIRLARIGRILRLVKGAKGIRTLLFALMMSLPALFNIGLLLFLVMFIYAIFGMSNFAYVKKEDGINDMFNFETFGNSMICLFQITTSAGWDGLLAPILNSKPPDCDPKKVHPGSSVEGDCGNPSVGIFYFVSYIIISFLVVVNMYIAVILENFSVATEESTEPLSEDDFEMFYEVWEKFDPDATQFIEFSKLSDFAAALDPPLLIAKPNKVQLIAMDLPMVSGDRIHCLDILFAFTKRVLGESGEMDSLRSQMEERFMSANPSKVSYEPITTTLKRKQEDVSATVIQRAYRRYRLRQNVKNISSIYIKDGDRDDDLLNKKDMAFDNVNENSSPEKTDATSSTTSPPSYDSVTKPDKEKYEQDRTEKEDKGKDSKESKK

As for `CC[C@H](C)[C@@H]1NC(=O)[C@@H]2CSSC[C@@H]3NC(=O)[C@H](C(C)C)NC(=O)[C@H](CC(C)C)NC(=O)[C@H](CC(N)=O)NC(=O)[C@@H]4CCCN4C(=O)[C@H](CCCNC(=N)N)NC(=O)[C@H](CSSC[C@H](NC(=O)[C@@H](N)CC(=O)O)C(=O)N[C@@H](CC(C)C)C(=O)NCC(=O)N[C@@H](C)C(=O)N[C@@H](Cc4ccccc4)C(=O)N[C@@H](CCCNC(=N)N)C(=O)N[C@@H](CCCCN)C(=O)N2)NC(=O)[C@H](CSSC[C@@H](C(=O)N[C@@H](CCCCN)C(=O)N[C@@H](Cc2ccc(O)cc2)C(=O)N[C@H](C(=O)N[C@@H](Cc2ccccc2)C(=O)O)C(C)C)NC(=O)[C@H](Cc2c[nH]c4ccccc24)NC(=O)[C@H](CCC(N)=O)NC(=O)[C@H](Cc2c[nH]cn2)NC(=O)[C@H]([C@@H](C)O)NC(=O)[C@H](CCCNC(=N)N)NC(=O)[C@H](CO)NC3=O)NC(=O)[C@H](CCCCN)NC(=O)[C@H](CC(=O)O)NC(=O)[C@H](CC(N)=O)NC(=O)[C@H](CC(=O)O)NC(=O)[C@@H]2CCCN2C1=O` [compound 834] (H-DCLGAFRKCIPDNDKCCRPNLVCSRTHQWCKYVF-OH; disulfide 2-17, 9-23, 16-30), the pIC50 is less than 5.30 in assay [1] (use-dependent block, hNav1.7); less than 5.30 in assay [2] (use-dependent block, hNav1.5); 5.41 in assay [3] (use-dependent block, hNav1.3).

As to `CC[C@H](C)[C@@H]1NC(=O)[C@@H]2CSSC[C@@H]3NC(=O)[C@H](C(C)C)NC(=O)[C@H](CC(C)C)NC(=O)[C@H](CC(N)=O)NC(=O)[C@@H]4CCCN4C(=O)[C@H](CCCNC(=N)N)NC(=O)[C@H](CSSC[C@H](NC(=O)[C@@H](N)CC(=O)O)C(=O)N[C@@H](CC(C)C)C(=O)NCC(=O)N[C@@H](Cc4ccccc4)C(=O)N[C@@H](CCSC)C(=O)N[C@@H](CCCNC(=N)N)C(=O)N[C@@H](CCCCN)C(=O)N2)NC(=O)[C@H](CSSC[C@@H](C(=O)N[C@@H](CCCCN)C(=O)N[C@@H](Cc2ccc(O)cc2)C(=O)N[C@H](C(=O)N[C@@H](Cc2ccccc2)C(N)=O)C(C)C)NC(=O)[C@H](Cc2c[nH]c4ccccc24)NC(=O)[C@H](CCCCN)NC(=O)[C@H](Cc2c[nH]cn2)NC(=O)[C@H](CC(=O)O)NC(=O)[C@H](CCCNC(=N)N)NC(=O)[C@H](CO)NC3=O)NC(=O)[C@H](CCCCN)NC(=O)[C@H](CC(=O)O)NC(=O)[C@H](CC(N)=O)NC(=O)[C@H](CC(=O)O)NC(=O)[C@@H]2CCCN2C1=O` [compound 347] (H-DCLGFMRKCIPDNDKCCRPNLVCSRDHKWCKYVF-NH2; disulfide 2-17, 9-23, 16-30), the pIC50 in assay [1] (Table 22, use, […]) was 6.02; in assay [2] (Table 22, use, […]), 4.85; in assay [3] (Table 22, use, […]), 6.19.

Take `CC[C@H](C)[C@@H]1NC(=O)[C@@H]2CSSC[C@@H]3NC(=O)[C@H](C(C)C)NC(=O)[C@H](CC(C)C)NC(=O)[C@H](CC(N)=O)NC(=O)[C@@H]4CCCN4C(=O)[C@H](CCCNC(=N)N)NC(=O)[C@H](CSSC[C@H](NC(=O)[C@@H](N)CC(=O)O)C(=O)N[C@@H](CC(C)C)C(=O)NCC(=O)N[C@@H](C)C(=O)N[C@@H](CCSC)C(=O)N[C@@H](CCCNC(=N)N)C(=O)N[C@@H](CCCCN)C(=O)N2)NC(=O)[C@H](CSSC[C@@H](C(=O)N[C@@H](CCCCN)C(=O)N[C@@H](Cc2ccc(O)cc2)C(=O)N[C@H](C(=O)N[C@@H](Cc2ccccc2)C(N)=O)C(C)C)NC(=O)[C@H](CCC(=O)O)NC(=O)[C@H](CCCCN)NC(=O)[C@H](Cc2c[nH]cn2)NC(=O)[C@H]([C@@H](C)O)NC(=O)[C@H](CCCNC(=N)N)NC(=O)[C@H](CO)NC3=O)NC(=O)[C@H](CCCCN)NC(=O)[C@H](CC(=O)O)NC(=O)[C@H](CC(N)=O)NC(=O)[C@H](CC(=O)O)NC(=O)[C@@H]2CCCN2C1=O` [compound 437] (H-DCLGAMRKCIPDNDKCCRPNLVCSRTHKECKYVF-NH2; disulfide 2-17, 9-23, 16-30): the pIC50 in assay [1] (use-dependent block, hNav1.7) was 4.92; in assay [2] (use-dependent block, hNav1.5), 5.03; in assay [3] (use-dependent block, hNav1.3), 5.22.

For the molecule `CC[C@H](C)[C@@H]1NC(=O)[C@@H]2CSSC[C@@H]3NC(=O)[C@H](C(C)C)NC(=O)[C@H](CC(C)C)NC(=O)[C@H](CC(N)=O)NC(=O)[C@@H]4CCCN4C(=O)[C@H](CCCNC(=N)N)NC(=O)[C@H](CSSC[C@H](NC(=O)[C@@H](N)CC(=O)O)C(=O)N[C@@H](CC(C)C)C(=O)NCC(=O)N[C@@H](Cc4ccc(OC)c(OC)c4)C(=O)N[C@@H](CC(C)C)C(=O)N[C@@H](CCCNC(=N)N)C(=O)N[C@@H](CCCCN)C(=O)N2)NC(=O)[C@H](CSSC[C@@H](C(=O)N[C@@H](CCCCN)C(=O)N[C@@H](Cc2ccc(O)cc2)C(=O)N[C@H](C(=O)N[C@@H](Cc2ccccc2)C(N)=O)C(C)C)NC(=O)[C@H](Cc2c[nH]c4ccccc24)NC(=O)[C@H](CCCCN)NC(=O)[C@H](Cc2c[nH]cn2)NC(=O)[C@H]([C@@H](C)O)NC(=O)[C@H](CCCNC(=N)N)NC(=O)[C@H](CO)NC3=O)NC(=O)[C@H](CCCCN)NC(=O)[C@H](CC(=O)O)NC(=O)[C@H](CC(N)=O)NC(=O)[C@H](CC(=O)O)NC(=O)[C@@H]2CCCN2C1=O` [compound 645], the pIC50 in assay [1] (use-dependent protocol, hNav1.7) is 5.62; in assay [2] (use-dependent protocol, hNav1.5), less than 5.30; in assay [3] (use-dependent protocol, hNav1.3), 5.59.

As for `CC[C@H](C)[C@@H]1NC(=O)CNC(=O)CNC(=O)[C@H](CC(C)C)NC(=O)[C@@H](NC(=O)[C@@H](N)CC(=O)O)CSSC[C@@H]2NC(=O)[C@@H]3CSSC[C@@H](C(=O)N[C@@H](CCCCN)C(=O)N[C@@H](Cc4ccc(O)cc4)C(=O)N[C@H](C(=O)N[C@@H](Cc4ccccc4)C(N)=O)C(C)C)NC(=O)[C@H](Cc4c[nH]c5ccccc45)NC(=O)[C@H](CCCCN)NC(=O)[C@H](Cc4c[nH]cn4)NC(=O)[C@H]([C@@H](C)O)NC(=O)[C@H](CCCNC(=N)N)NC(=O)[C@H](CO)NC(=O)[C@H](CSSC[C@H](NC(=O)[C@H](CCCCN)NC(=O)[C@H](CCCNC(=N)N)NC1=O)C(=O)N[C@@H]([C@@H](C)CC)C(=O)N1CCC[C@H]1C(=O)N[C@@H](CC(=O)O)C(=O)N[C@@H](CC(N)=O)C(=O)N[C@@H](CC(=O)O)C(=O)N[C@@H](CCCCN)C(=O)N3)NC(=O)[C@H](C(C)C)NC(=O)[C@H](CC(C)C)NC(=O)[C@H](CC(N)=O)NC(=O)[C@@H]1CCCN1C(=O)[C@H](CCCNC(=N)N)NC2=O` [compound 752] (H-DCLGGIRKCIPDNDKCCRPNLVCSRTHKWCKYVF-NH2; disulfide 2-17, 9-23, 16-30), the pIC50 is less than 5.30 in assay [1] (use-dependent block, hNav1.7); 4.60 in assay [2] (use-dependent block, hNav1.5); less than 5.30 in assay [3] (use-dependent block, hNav1.3).

Turning to `CC[C@H](C)[C@@H]1NC(=O)[C@@H]2CSSC[C@@H]3NC(=O)[C@H](C(C)C)NC(=O)[C@H](Cc4ccc(C(=O)O)cc4)NC(=O)[C@H](CC(N)=O)NC(=O)[C@@H]4CCCN4C(=O)[C@H](CCCNC(=N)N)NC(=O)[C@H](CSSC[C@H](NC(=O)[C@@H](N)CC(=O)O)C(=O)N[C@@H](CC(C)C)C(=O)NCC(=O)N[C@@H](Cc4ccccc4)C(=O)N[C@@H](CCSC)C(=O)N[C@@H](CCCNC(=N)N)C(=O)N[C@@H](CCCCN)C(=O)N2)NC(=O)[C@H](CSSC[C@@H](C(=O)N[C@@H](CCCCN)C(=O)N[C@@H](Cc2ccc(O)cc2)C(=O)N[C@H](C(=O)N[C@@H](Cc2ccccc2)C(N)=O)C(C)C)NC(=O)[C@H](Cc2c[nH]c4ccccc24)NC(=O)[C@H](CCCCN)NC(=O)[C@H](Cc2c[nH]cn2)NC(=O)[C@H]([C@@H](C)O)NC(=O)[C@H](CCCNC(=N)N)NC(=O)[C@H](CO)NC3=O)NC(=O)[C@H](CCCCN)NC(=O)[C@H](CC(=O)O)NC(=O)[C@H](CC(N)=O)NC(=O)[C@H](CC(=O)O)NC(=O)[C@@H]2CCCN2C1=O` [compound 317] (H-DCLGFMRKCIPDNDKCCRPN[Phe(4-COOH)]VCSRTHKWCKYVF-NH2; disulfide 2-17, 9-23, 16-30), the results for the pIC50 in assay [1] (Use), in assay [2] (Use) and in assay [3] (Use) were 5.40, 5.05 and 5.44, respectively.

On to `CC[C@H](C)[C@@H]1NC(=O)[C@@H]2CSSC[C@@H]3NC(=O)[C@H](C(C)C)NC(=O)[C@H](CC(C)C)NC(=O)[C@H](CC(N)=O)NC(=O)[C@@H]4CCCN4C(=O)[C@H](CCCNC(=N)N)NC(=O)[C@H](CSSC[C@H](NC(=O)[C@@H](N)CC(=O)O)C(=O)N[C@@H](CC(C)C)C(=O)NCC(=O)N[C@@H](Cc4ccccc4)C(=O)N[C@@H](CCSC)C(=O)N[C@@H](CCCNC(=N)N)C(=O)N[C@@H](CCCCN)C(=O)N2)NC(=O)[C@H](CSSC[C@@H](C(=O)N[C@@H](CCCCN)C(=O)N(C)[C@@H](Cc2c[nH]c4ccccc24)C(=O)N[C@H](C(=O)N[C@@H](Cc2ccccc2)C(N)=O)C(C)C)NC(=O)[C@H](Cc2c[nH]c4ccccc24)NC(=O)[C@H](CCCCN)NC(=O)[C@H](Cc2c[nH]cn2)NC(=O)[C@H]([C@@H](C)O)NC(=O)[C@H](CCCNC(=N)N)NC(=O)[C@H](CO)NC3=O)NC(=O)[C@H](CCCCN)NC(=O)[C@H](CC(=O)O)NC(=O)[C@H](CC(N)=O)NC(=O)[C@H](CC(=O)O)NC(=O)[C@@H]2CCCN2C1=O` [compound 371] (H-DCLGFMRKCIPDNDKCCRPNLVCSRTHKWCK[NMeW]VF-NH2; disulfide 2-17, 9-23, 16-30), for which the pIC50 is 5.31 in assay [1] (Table 25, use, […]); less than 5.30 in assay [2] (Table 25, use, […]); less than 5.30 in assay [3] (Table 25, use, […]).

Values taken from patent publication US9340590B2 (priority 2011, dated 2016).
